Experimental data from US20090312575A1, “Process For Preparing A Benzoylbenzeneacetamide Derivative” (Medichem, S.A., priority 2008, published 2009).
Converted amounts (≈) assume the structure as drawn. Read-outs that look alike come from different tables or passages of the source.

What was measured:
[1] = solubility profile at room temperature in organic solvents; type: physicochemical
Source text: Optionally, water can be added to the suspension earlier than the filtration. Further, this filtration step introduces an additional purification step.

[2] = polymorphic form after one year storage (XRD and IR); type: physicochemical; conditions: one year at room temperature and ambient atmosphere conditions
Source text: X-ray Powder Diffraction (XRD). The XRD diffractograms were obtained using a RX SIEMENS D5000 diffractometer with a vertical goniometer, a copper anodic tube, and radiation CuKα, λ=1, 54056 Á.
Infrared Spectra (IR). Fourier transform IR spectra were acquired on a Thermo Nicolet Nexus spectrometer, and polymorphs were characterized in potassium bromide pellets.
Analytical data: XRD: Form A, see FIG. 1; IR: see FIG. 2; DSC: see FIG. 7. Analytical data of the compound after one year at room temperature and ambient atmosphere conditions (XRD and IR): Form A.
Analytical data: XRD: Form B, see FIG. 3; DSC: see FIG. 8. Analytical data of the compound after one year at room temperature and ambient atmosphere conditions (XRD and IR): Form B.

Row | solubility ([1]; 1:1 mixture of tetrahydrofuran/water, aqueous with cosolvent or surfactant or cyclodextrin, 1:1 tetrahydrofuran/water, room temperature, read-out: solubility in a 1:1 mixture of tetrahydrofuran/water) | solubility ([1]; tetrahydrofuran, organic solvent or mixture, tetrahydrofuran, room temperature, read-out: solubility in tetrahydrofuran) | crystalline form after one year (XRD and IR) ([2]; listed as Example 4) | solubility ([1]; acetonitrile, organic solvent or mixture, acetonitrile (reaction mixture solvent), read-out: solubility in acetonitrile) | solubility in tetrahydrofuran ([1]; tetrahydrofuran, room temperature) | crystalline form after one year (XRD and IR) ([2]; listed as Example 5) | Compound
1 | ~50 mg/mL (≈ 166 mM) | ~50 mg/mL (≈ 166 mM) | Form A | – | – | – | CSC(C(N)=O)c1cccc(C(=O)c2ccccc2)c1N (stereo not drawn) [compound (IV) Form A, 2-amino-3-benzoyl-α-(methylthio)benzeneacetamide]
2 | – | – | – | ~5.9 mg/mL (≈ 19.6 mM) | approx. 33 mg/mL | Form B | CSC(C(N)=O)c1cccc(C(=O)c2ccccc2)c1N (stereo not drawn) [compound (IV) Form B, 2-amino-3-benzoyl-α-(methylthio)benzeneacetamide]
